pEC50: −log10 of the molar value. Like-named read-outs stand apart in the source and are kept apart here.
How the values were obtained:
[1] = biological target: T1, human OX1R (Homo sapiens, UniProt O43613); assay: Calcium flux assay, OX1R agonistic activity; type: cell-based; conditions: CHO cells expressing human OX1R, 95% confidence intervals in brackets, duplicate measurements
T1 construct: expressed in transfected cells; host or cells: CHO-K1
T1 sequence (O43613 1-425): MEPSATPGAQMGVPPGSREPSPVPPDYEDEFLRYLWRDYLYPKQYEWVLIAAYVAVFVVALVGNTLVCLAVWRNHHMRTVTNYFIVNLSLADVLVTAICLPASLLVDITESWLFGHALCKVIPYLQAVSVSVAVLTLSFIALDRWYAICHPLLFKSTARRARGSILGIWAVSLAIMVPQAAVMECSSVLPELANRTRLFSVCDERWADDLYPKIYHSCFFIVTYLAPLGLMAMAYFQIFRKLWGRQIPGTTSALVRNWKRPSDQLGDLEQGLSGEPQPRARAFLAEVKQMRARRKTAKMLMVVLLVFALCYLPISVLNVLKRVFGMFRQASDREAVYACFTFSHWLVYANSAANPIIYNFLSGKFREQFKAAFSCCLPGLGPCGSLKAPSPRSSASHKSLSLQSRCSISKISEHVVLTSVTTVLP
Protocol: Calcium flux assay (in vitro agonistic activity of OX2R and OX1R)1 hOX1R/CHO -K1 cells and hOX2R/CHO-K1 cells suspended in Ham's F-12 medium (Fujifilm Wako Pure Chemical Co.) supplemented with 100 U/mL penicillin-streptomycin and 10% FBS […]
cells/well and in black-walled clear -bottomed 96-well plates (Corning) at 45000 cells/well, respectively. The plated cells were grown overnight at 37 °C in the presence of 5% CO2. The following day, the medium was removed, and the cells were incubated with assay buffer ( H BS S with 20mM HEPES, pH 7.4, and 0.1% fatty acid free BSA) containing 2.5 μg/mL Fluo- 4 AM […]
Laboratories), and 0.08% Pluronic F127 (Dojindo Laboratories) for 30 min at 37 °C in the presence of 5% CO2. After incubation, the cells were stimulated with test compounds in the assay buffer. Calcium mobilization was measured using an FDSS/μCELL (Hamamatsu Photonics […]
r epr esent the 0% and 100% responses, respectively.

[2] = biological target: T2, human OX2R (Homo sapiens, UniProt O43614); assay: Calcium flux assay, OX2R agonistic activity
T2 sequence (O43614 1-444): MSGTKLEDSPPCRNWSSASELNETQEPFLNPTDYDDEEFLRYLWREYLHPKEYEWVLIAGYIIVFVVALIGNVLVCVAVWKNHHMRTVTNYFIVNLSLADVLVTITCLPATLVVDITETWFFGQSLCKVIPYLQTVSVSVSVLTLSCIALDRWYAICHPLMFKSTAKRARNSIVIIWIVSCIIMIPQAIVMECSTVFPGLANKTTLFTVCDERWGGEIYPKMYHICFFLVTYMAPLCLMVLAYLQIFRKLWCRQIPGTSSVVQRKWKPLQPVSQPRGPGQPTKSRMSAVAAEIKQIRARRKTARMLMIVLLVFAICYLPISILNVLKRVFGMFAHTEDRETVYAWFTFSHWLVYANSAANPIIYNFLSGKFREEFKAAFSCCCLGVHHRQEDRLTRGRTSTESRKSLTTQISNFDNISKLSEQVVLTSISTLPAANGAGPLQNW

[3] = biological target: multidrug resistance protein 1 (MDR-1) (Homo sapiens, UniProt P08183); assay: Transcellular transport study using human MDR1-expressing LLC-PK1 cells; conditions: for MDR-1 ratio (directional transport ratio B to A/A to B): 10 μM test compound, 2 h
Protocol: Transcellular transport study using a t ransporter- exp ressi on syst em
Human MDR1-expressing LLC -PK1 cells were cultured as reported previously with minor
modifications. 2 T he transcellular transport study was performed as reported previously.2 In brief,
the cells were grown for 7 days in an HTS Transwell 96 -well permeable support (pore size, 0.4
μm; sur f ace ar ea, 0. 143 cm2) with a polyethylene ter ephthalate membr ane ( Cor ning Lif e Sciences,
T he cells wer e pr eincubated with M199
at 37 °C for 30 min. Subsequently, transcellular transport was initiated by the addition of M199
either to apical compartments (75 μ L) or to the basolateral compartments (250 μ L) containing 10
μM digoxin, 200 μM lucifer yellow as a marker for the monolayer tightness, and 10 μM test
compounds and then terminated by the removal of each assay plate after 2 h. The aliquots (25
μL) in the opposite compartments were mixed with acetonitrile containing alprenolol an d
diclofenac as an internal standard and then centrifuged. The compound concentrations in the
supernatant were measured by LC− MS/MS. The apparent permeability (Pap p ) of test compounds
in the receiver wells was deter mined, and the efflux ratio for the MDR1 membrane permeability
test was calculated using the following equation:
Efflux ratio = Papp,BtoA/Papp,AtoB
wher e Papp,AtoB is the apical-to-ba sal passive permeability−sur f ace ar ea pr oduct and P app,BtoA is the
basal-to -apical pas sive per meability−sur f ace ar ea pr oduct.

[4] = Brain and plasma concentration after intraperitoneal administration in mice; type: in vivo, C57BL/6J mice; conditions: 10 mg/kg ip; for concentration at 0.5 h / concentration at 1 h: n = 3
Protocol: Brain and plasma concentration of compound 16 was measured after intraperitoneal administration at 10 mg/kg in mice (Table 5).
Measurem ent of plasm a and brain concent rat ion of compound 16 in mice The aliquots of the brain homogenate were mixed with acetonitrile containing internal standard.
The mixtures were centrifuged. The supernatants were diluted with solvents for LC-MS / MS (mobile phase A: 10 mM ammonium formate/formic acid (100/0.2, v/v), mobile phase B: acetonitrile/formic acid (100/0.2, v/v)). The diluted solutions were injected into LC-MS / MS (API5000, AB Sciex, CA) equipped with Shimadzu Shim-pack XR-ODS (2.2 μm, 2.0 × 30 mm, Shimadzu Corporation, Japan) at 50 °C. Analyst sof twar e T M ( ver sio n 1.4.2) was used for data acquisition and processing.
Ethics Statement. The care and use of the animals and the experimental protocols used in this research were approved by the Experimental Animal Care and Use Committee of Takeda Phar maceutical Company Limited.

[5] = test system: ICR mice; assay: Wakefulness time in ICR mice during the sleep phase (EEG/EMG); type: in vivo; conditions: sleep phase (ZT5), 3 mg/kg subcutaneous, n = 8, P < 0.001 vs vehicle
Protocol: It has been reported that activation of the orexin system by intracerebroventricular injection of OX-A increases wakefulness in rodents.[20],[21] In this study, we assessed the effect of compound 16 on wakefulness time in ICR mice during the sleep phase based on the measurements of electroencephalogram and electromyogram.
Figure 5 Effect of compound 16 on wakefulness time in ICR mice during the sleep phase. Compound 16 at 3 mg/kg or vehicle was administered subcutaneously to ICR mice at zeitgeber time 5, and electroencephalograms and electromyograms were recorded. Analysis was performed with data collected during 3 h after drug administration. Data were presented as the mean + standard error of the mean (n = 8). ***P < 0.001, compared with the vehicle-treated mice (two-tailed paired t test).
Evaluation of wakefulness time m easu rem ent of compound 16 in m ice
I CR mice were obtained from CLEA Japan Inc. (Tokyo, Japan). M ice were housed in groups of 4 per cage in a light controlled room (12 h light/dark cycle with lights on at 07:00 h). Food and tap water were provided ad libitum . […] 1 Compound 16 at 3 mg/kg suspended in 0.5% methylcellulose saline was administered subcutaneously to mice at zeitgeber time 5 (ZT5) in a volume of 10 mL/kg body weight, and then EE G was recorded. […] The statistical significance between two groups was determined by paired t-test with significance set at P < 0.05. […]

[6] = read-out: OX2R agonistic activity EC50, CHO cells expressing human OX2R, calcium flux, 95% confidence intervals in brackets, duplicate measurements

Compound | pEC50 [1] | pEC50 [2, 6] | MDR-1 ratio (directional transport ratio B to A/A to B) [3] | other results
CC(=O)N1CCC[C@H](NS(=O)(=O)C(C)C)[C@@H]1CO[C@H]1CC[C@@H](C(C)C)CC1 [compound 8] | < 4.00 | 6.03 |  | 
CCCS(=O)(=O)N[C@H]1CCCN(C(C)=O)[C@H]1CO[C@H]1CC[C@@H](C(C)C)CC1 [compound 9] | < 4.00 | 5.60 |  | 
CC(=O)N1CCC[C@H](N(C)S(C)(=O)=O)[C@@H]1CO[C@H]1CC[C@@H](C(C)C)CC1 [compound 10] | < 4.00 | < 4.52 |  | 
CS(=O)(=O)N[C@H]1CCCN[C@H]1CO[C@H]1CC[C@@H](c2ccccc2)CC1 [compound 14] | < 4.00 |  | 0.8 | 
CCC(=O)N1CCC[C@H](NS(C)(=O)=O)[C@@H]1CO[C@H]1CC[C@@H](c2ccccc2)CC1 [compound 15] | < 4.00 | 7.96 | 2.2 | 
COC(=O)N1CCC[C@H](NS(C)(=O)=O)[C@@H]1CO[C@H]1CC[C@@H](c2ccccc2)CC1 [compound 16, methyl (2R,3S)-3-((methylsulfonyl)amino)-2-(((cis-4-phenylcyclohexyl)oxy)methyl)piperidine-1-carboxylate] | < 4.00 | 8.26 | 0.8 | half-life in mice ([4]; mice): short half-life; Kp at 0.5 h ([4]; mouse, brain/plasma, C57BL/6J mice, 0.5 h, read-out: brain-to-plasma concn ratio): 0.2; Kp at 1 h ([4]; mouse, brain/plasma, C57BL/6J mice, 1 h, read-out: brain-to-plasma concn ratio): 0.2; concentration at 0.5 h ([4]; mouse, brain, C57BL/6J mice, 0.5 h, read-out: brain concn): 183 ng/g; concentration at 1 h ([4]; mouse, brain, C57BL/6J mice, 1 h, read-out: brain concn): 63 ng/g; concentration at 0.5 h ([4]; mouse, plasma, C57BL/6J mice, 0.5 h, read-out: plasma concn): 880 ng/mL; concentration at 1 h ([4]; mouse, plasma, C57BL/6J mice, 1 h, read-out: plasma concn): 288 ng/mL; total wakefulness time during 3 h after administration [5]: significantly increased; MDR-1 transport A to B ([3]; apical to basal): 169
CCOC(=O)N1CCC[C@H](NS(C)(=O)=O)[C@@H]1CO[C@H]1CC[C@@H](c2ccccc2)CC1 [compound 17] | < 4.00 | 7.57 | 0.7 | 

Further lines, with some results ahead:

pEC50 [1] | pEC50 [2, 6] | MDR-1 ratio (directional transport ratio B to A/A to B) [3] | Compound | other results
< 4.00 |  |  | CC(=O)N1CCC[C@H](NS(C)(=O)=O)[C@@H]1CO[C@H]1CC[C@@H](C)CC1 (relative stereo) [compound 12] | pEC50 [2]: 5.43
< 4.00 |  |  | CC(=O)N[C@H]1CCCN(C(C)=O)[C@H]1CO[C@H]1CC[C@@H](C(C)C)CC1 (stereo in doubt) [compound 11] | pEC50 [2]: < 4.52
< 4.00 | 6.24 |  | CCS(=O)(=O)NC1CCCN(C(C)=O)C1COC1CCC(C(C)C)CC1 (stereo not drawn) [compound 2] | Emax ([2]; read-out: maximum response [Emax], OX2R agonism): 94%
< 4.00 | 6.57 |  | CCS(=O)(=O)N[C@H]1CCCN(C(C)=O)[C@H]1CO[C@H]1CC[C@@H](C(C)C)CC1 [compound 3] | 
< 4.00 | < 4.52 |  | CCS(=O)(=O)N[C@@H]1CCCN(C(C)=O)[C@H]1CO[C@H]1CC[C@@H](C(C)C)CC1 [compound 4] | 
< 4.00 | < 4.52 |  | CCS(=O)(=O)N[C@H]1CCCN(C(C)=O)[C@H]1CO[C@H]1CC[C@H](C(C)C)CC1 [compound 5] | 
< 4.00 | < 4.52 |  | CCS(=O)(=O)N[C@@H]1CCCN(C(C)=O)[C@H]1CO[C@H]1CC[C@H](C(C)C)CC1 [compound 6] | 
< 4.00 | 6.48 |  | CC(=O)N1CCC[C@H](NS(C)(=O)=O)[C@@H]1CO[C@H]1CC[C@@H](C(C)C)CC1 [compound 7] | 
4.85 |  | 4.8 | CCNC(=O)N1CCC[C@H](NS(C)(=O)=O)[C@@H]1CO[C@H]1CC[C@@H](c2ccccc2)CC1 [compound 18] | 
